Data from patent US9371336B2, “Compounds for treating spinal muscular atrophy” (PTC Therapeutics Inc., priority 2012, dated 2016).

Tested on: SMN2 full length and Δ7 mRNA
Test: Endogenous SMN2 mRNA RT-qPCR splicing assay in cultured cells (GM03813 SMA patient cells)
Assay type: cell-based, human
Conditions: Type 1 SMA patient fibroblasts GM03813, increasing concentrations, 24 hr, RT-qPCR (FIG. 4)
Description: The reverse transcription-quantitative PCR-based (RT-qPCR) assay is used to quantify the levels of the SMN2 full length and Δ7 mRNA in primary cells and cell lines containing the SMN2 gene treated with a test compound.
GM03813 SMA patient cells (5,000 cells/well) are seeded in 200 μL, of cell culture medium (DMEM plus 10% FBS) in 96-well flat-bottom plates and the plate is immediately swirled to ensure proper dispersal of cells, forming an even monolayer of cells. Cells are allowed to attach for at least 4-6 hrs. Test compounds are serially diluted 3.16-fold in 100% DMSO to generate a 7-point concentration curve. A solution of test compound (1 μL, 200× in DMSO) is added to each test well and 1 μL, DMSO is added to each control well. The plate is incubated for 24 hrs in a cell culture incubator (37° C., 5% CO2, 100% relative humidity). The cells are then lysed in Cells-To-Ct lysis buffer and the lysate is stored at 80° C.
SMN2-specific spliced products and GAPDH mRNA are identified using the following primers and probes in Table 5. Primer SMN FL Forward B (SEQ ID NO. 7) hybridizes to a nucleotide sequence in exon 7 (nucleotide 32 to nucleotide 54) and exon 8 (nucleotide 1 to nucleotide 4), primer SMN Δ7 Forward B (SEQ ID NO. 8) hybridizes to a nucleotide sequence in exon 6 (nucleotide 87 to nucleotide 111) and exon 8 (nucleotide 1 to nucleotide 3), primer SMN Reverse B (SEQ ID NO. 9) hybridizes to a nucleotide sequence in exon 8 (nucleotide 39 to nucleotide 62), probe SMN Probe B (SEQ ID NO. 10) hybridizes to a nucleotide sequence in exon 8 (nucleotide 7 to nucleotide 36). These primers and probes hybridize to nucleotide sequences common to human SMN1 and SMN2 mRNA. Since the SMA patient cells used in Example 3 contain only the SMN2 gene, RT-qPCR can quantify only SMN2 full-length and Δ7 mRNA.
The SMN forward and reverse primers are used at final concentrations of 0.4 μM. The SMN probe is used at a final concentration of 0.15 μM. GAPDH primers are used at final concentrations of 0.1 μM and the probe at 0.075 μM. […]
The increase of SMN2 FL and decrease in SMN2 Δ7 mRNA relative to those in cells treated with vehicle control are determined from real-time PCR data using a modified ΔΔCt method (as described in Livak and Schmittgen, Methods, 2001, 25:402-8). The amplification efficiency (E) is calculated from the slope of the amplification curve for SMN2 FL, SMN2 Δ7, and GAPDH individually. The abundances of SMN2 FL, SMN2 Δ7, and GAPDH are then calculated as (1+E)^−Ct, where Ct is the threshold value for each amplicon. […]

SMILES	SMN2 FL mRNA relative to vehicle	SMN2 Δ7 mRNA relative to vehicle
Cc1ccc2nc(-c3cc4ccc(N5CCN(C)CC5)nc4oc3=O)cn2c1 [Cpd 27, 3-(6-methylimidazo[1,2-a]pyridin-2-yl)-7-(4-methylpiperazin-1-yl)-2H-pyrano[2,3-b]pyridin-2-one]	progressively more SMN2 FL mRNA	less SMN2 Δ7 mRNA
CN1CCN(c2ccc3cc(-c4nc5c(Cl)cccc5s4)c(=O)oc3n2)CC1 [Cpd 5, 3-(4-chloro-1,3-benzothiazol-2-yl)-7-(4-methylpiperazin-1-yl)-2H-pyrano[2,3-b]pyridin-2-one]	progressively more SMN2 FL mRNA	less SMN2 Δ7 mRNA
